How the values were obtained:
[1] = target: T1, human A2B receptor (Homo sapiens, UniProt P29275); assay: Functional A2B receptor activity, recombinant HEK293 cells, cAMP (HTRF), agonist NECA; type: cell-based; details: read-out: Functional A2B receptor activity, HEK293, cAMP, IC50
T1 construct: expressed in transfected cells; host or cells: HEK293
T1 sequence (P29275 1-332): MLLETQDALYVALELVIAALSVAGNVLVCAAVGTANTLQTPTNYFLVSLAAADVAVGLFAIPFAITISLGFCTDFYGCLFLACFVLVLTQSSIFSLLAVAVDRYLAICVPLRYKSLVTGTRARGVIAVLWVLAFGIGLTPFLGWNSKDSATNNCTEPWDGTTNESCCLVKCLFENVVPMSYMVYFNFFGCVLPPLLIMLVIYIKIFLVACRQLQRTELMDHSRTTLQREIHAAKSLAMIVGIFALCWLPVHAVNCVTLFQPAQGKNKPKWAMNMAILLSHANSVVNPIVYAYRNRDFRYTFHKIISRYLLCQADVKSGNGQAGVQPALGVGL
Summary of the method: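 Cells were seeded, then treated with forskolin, test compound and agonist. After a 30 min incubation, HTRF detection reagents were added and intracellular cAMP was read. Values were scaled between an inhibitor control and DMSO before fitting.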

[2] = target: T2, human A1 receptor (Homo sapiens, UniProt P30542); assay: Functional A1 receptor activity, recombinant CHO cells, cAMP (HTRF), forskolin, agonist CPA; type: cell-based; details: recombinant CHO cells, forskolin, agonist CPA; read-out: Functional A1 receptor activity, CHO, cAMP, IC50
T2 construct: expressed in transfected cells; host or cells: CHO
T2 sequence (P30542 1-326): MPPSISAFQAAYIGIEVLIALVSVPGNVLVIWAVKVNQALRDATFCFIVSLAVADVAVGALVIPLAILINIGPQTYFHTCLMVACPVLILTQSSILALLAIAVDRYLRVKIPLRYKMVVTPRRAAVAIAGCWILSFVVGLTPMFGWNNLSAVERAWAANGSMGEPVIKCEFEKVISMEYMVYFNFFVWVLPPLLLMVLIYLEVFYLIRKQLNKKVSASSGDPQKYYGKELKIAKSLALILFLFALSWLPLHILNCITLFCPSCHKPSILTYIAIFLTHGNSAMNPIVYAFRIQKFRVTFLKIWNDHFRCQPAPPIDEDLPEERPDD
Summary of the method: (§1)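 Recombinant CHO lines carrying either receptor receive forskolin, compound and the matching agonist, CPA or IB-MECA. After 30 min, HTRF reagents are added and cAMP is quantified. Values are normalized to inhibitor and neutral DMSO controls, then fitted.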

[3] = target: T3, human A3 receptor (Homo sapiens, UniProt P0DMS8); assay: Functional A3 receptor activity, recombinant CHO cells, cAMP (HTRF), forskolin, agonist IB-MECA; type: cell-based; details: recombinant CHO cells, forskolin, agonist IB-MECA; read-out: Functional A3 receptor activity, CHO, cAMP, IC50
T3 construct: expressed in transfected cells; host or cells: CHO
T3 sequence (P0DMS8 1-318): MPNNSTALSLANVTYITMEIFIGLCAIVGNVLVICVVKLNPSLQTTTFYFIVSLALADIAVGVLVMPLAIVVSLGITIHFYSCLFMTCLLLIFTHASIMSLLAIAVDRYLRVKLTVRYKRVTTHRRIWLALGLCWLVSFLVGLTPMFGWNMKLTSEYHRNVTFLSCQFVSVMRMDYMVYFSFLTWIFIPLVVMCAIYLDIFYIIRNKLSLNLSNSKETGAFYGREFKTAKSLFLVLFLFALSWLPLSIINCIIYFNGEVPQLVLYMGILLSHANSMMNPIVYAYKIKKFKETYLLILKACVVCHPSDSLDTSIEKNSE
Summary of the method: as §1

[4] = Pharmacokinetic properties in mouse after single intravenous and oral administration; type: in vivo
Method: The objective of the study was to obtain information on the pharmacokinetic properties of the compounds of the present invention in female Wistar rats/mice following single intravenous and oral administration.
Female Wistar rats/mice (n=6) received either a single intravenous (bolus) injection or an oral administration (by gavage) of the tested compound. Doses of 0.2 and 10 mg/kg (per compound) were given intravenously and per os, respectively, as a solution in DMSO (0.2%)/PEG 200 (40%)/water for iv administration and as a suspension in Methocel (0.5%)/Tween 20 (0.25%) in water for oral dosing. Consecutive blood samples were taken sub-lingually under isoflurane inhalation from 3 animals per route of administration after 0.1 (only iv), 0.25 (only po), 0.5, 1, 2, 4, 6 and 24 h and were further processed to obtain plasma. Also, urine and feces samples of 3 rats per route of administration were collected over the time interval from 0-24 h and were pooled for analysis.
The concentrations of the compounds in plasma, feces were quantified using an UPLC method with tandem mass spectrometric detection (LC-MS/MS) previously developed at the ‘Institute of Drug Metabolism and Pharmacokinetics’. The LCMS/MS system consisted of a Waters Acquity UPLC coupled to an AB Sciex mass spectrometer API 5500 Q-trap. The UPLC separation was carried out on a reversed phase column (HSS T3, […], 2.1×50 mm) using a mobile phase gradient with 0.1% formic acid and acetonitrile as eluents. The detection of the compounds was performed using multiple reaction monitoring in the positive ionization mode. Plasma samples were spiked with internal standard (20 μl) and the analyte was extracted from the matrix using tertiary-butyl methyl ether (tBME). The organic phase was evaporated to dryness under a stream of nitrogen. The residue was dissolved in acetonitrile/0.1% formic acid for LC-MS/MS analysis. Feces samples were homogenized with 4-times their volume of an ethanol/water mixture (4:1, v/v). Aliquots of the aqueous-ethanolic extracts were spiked with internal standard, diluted with acetonitrile/water (1:1, v/v) and directly injected into the LC-MS/MS system.
Pharmacokinetic parameters Cmax and tmax were taken from the observed data. […] AUC values were calculated by non-compartmental analysis using the linear up/log down method. Numerical data for mean plasma concentrations and derived pharmacokinetic parameters were rounded to 3 significant digits for presentation.

[5] = system: human T cells; assay: hTcell data, IL-2 (human T cells, IL-2 readout; method not given); type: cell-based; details: compounds of the present invention

COc1ncc(C2=CCOCC2)c2sc(NC(=O)N3CC[C@@]4(CCCOC4)C3)nc12 [Compound 25, (S)-7-Oxa-2-aza-spiro[4.5]decane-2-carboxylic acid [7-(3,6-dihydro-2H-pyran-4-yl)-4-methoxy-thiazolo[4,5-c]pyridin-2-yl]-amide]
IC50 [1]: < 0.01 µM | IC50 [2]: > 1 µM | IC50 [3]: > 1 µM | Feces iv ([4]; @0.2 (mg/kg), % of dose excreted in feces): 22@0.2% | clearance ([4]; female, plasma, 0.2 mg/kg): 77.5 mL/min/kg | Cmax ([4]; female, plasma, 0.2 mg/kg, dose-normalized to 1 mg/kg): 500 ng/mL | Vd ([4]; female, plasma, 0.2 mg/kg, read-out: Vss): 3.16 L/kg | half-life ([4]; female, plasma, 0.2 mg/kg, read-out: t½ (converted)): 54.6 min | IC50 [5]: < 0.01 µM
